Some results are limits rather than exact numbers.

One assay has as its target PI3K alpha (Homo sapiens (Human), UniProt P42336). Put plainly: Biochemical assay for PI3Kalpha (Kinase-Glo format). As to conditions: enzymatic assay. The method, then:
1.1 Generation of Gene Constructs, Protein Expression and Purification
For the enzymatic assays, the preparation of PI3K gene constructs, protein expression and purification for HTS are described in WO2012/004299.
1.2 Biochemical Assays for PI3Kalpha, PI3Kbeta (Kinase-Glo Format)
The kinase reaction is performed in a final volume of 50 μl per well of a half area COSTAR, 96 well plate. The final concentrations of ATP and phosphatidyl inositol in the assay are 5 μM and 6 μg/mL, respectively. The reaction is started by the addition of PI3 kinase, e.g. PI3 kinase α.
The components of the assay are added per well as follows: • 10 μl test compound in 5% DMSO per well in […]. • Total activity is determined by addition 10 μl of 5% vol/vol DMSO in the first 4 wells of column 1 and the last 4 wells of column 12. • The background is determined by addition of 10 μM control compound to the last 4 wells of column 1 and the first 4 wells of column 12. • 2 mL ‘Assay mix’ are prepared per plate: • 1.912 mL of HEPES assay buffer • 8.33 μl of 3 mM stock of ATP giving a final concentration of 5 μM per well • 1 μl of [^33P]ATP on the activity date giving 0.05 μCi per well • 30 μl of 1 mg/mL PI stock giving a final concentration of 6 μg/mL per well • 5 μl of 1 M stock MgCl2 giving a final concentration of 1 mM per well • 20 μl of the assay mix are added per well. • 2 mL ‘Enzyme mix’ are prepared per plate (x* μl PI3 kinase p110α in 2 mL of kinase buffer). The ‘Enzyme mix’ is kept on ice during addition to the assay plates. * The volume of enzyme is dependent on the enzymatic activity of the batch in use. • 20 μl ‘Enzyme mix’ are added/well to start the reaction. • The plate is then incubated at room temperature for 90 minutes. • The reaction is terminated by the addition of 50 μl WGA-SPA bead (wheat germ agglutinin-coated Scintillation Proximity Assay beads) suspension per well. • The assay plate is sealed using TopSeal-S (heat seal for polystyrene microplates, PerkinElmer LAS [Deutschland] GmbH, Rodgau, Germany) and incubated at room temperature for at least 60 minutes. • The assay plate is then centrifuged at 1500 rpm for 2 minutes using the Jouan bench top centrifuge (Jouan Inc., Nantes, France). • The assay plate is counted using a Packard TopCount, each well being counted for 20 seconds.
In a more preferred assay, the kinase reaction is performed in a final volume of 10 μl per well of a low volume non-binding CORNING, 384 well black plate (Cat. No. #3676). The final concentrations of ATP and phosphatidyl inositol (PI) in the assay are 1 μM and 10 μg/mL, respectively. The reaction is started by the addition of ATP.
The components of the assay are added per well as follows: […]
(In general: Kinase-Glo measures the ATP left after a reaction by luminescence.)

In assay [1] the target is human phosphoinositide-3 kinase (PI3K) alpha (Homo sapiens (Human), UniProt P42336). Put plainly: PI3K-mediated Akt 1/2 (S473) phosphorylation in Rat-1 cells overexpressing PI3K alpha. It is filed as cell-based, rat cells expressing human PI3K alpha. As to conditions: cellular assay, p-AKT(Ser473), read-out: Cell PI3K alpha IC50. The protocol: 2.1 Phosphoinositide-3 kinase (PI3K)-Mediated Akt 1/2 (S473) Phosphorylation in Rat-1 Cells
Rat-1 cells stably overexpressing a myristoylated form of the catalytic subunit of human phosphoinositide-3 kinase (PI3K) alpha, beta or delta were plated in 384-well plates at a density of 7500 (PI3K alpha), 6200 (PI3K beta), or 4000 (PI3K delta) cells in 30 ul complete growth medium (Dulbecco's modified Eagle's medium (DMEM high glucose) supplemented with 10% (v/v) fetal bovine serum, 1% (v/v) MEM non essential amino acids, 10 mM HEPES, 2 mM L-glutamine, 10 μg/mL puromycin and 1% (v/v) Penicillin/Streptomycin) and were incubated at […]/5% CO2/95% humidity for 24 h. Compounds were diluted in 384-well compound plates (compound master plates), to obtain 8-point serial dilutions for 40 test compounds in 90% DMSO, as well as 4 reference compounds plus 16 high controls and 16 low (inhibited) controls. Predilution plates were prepared by dispensing pipetting 250 nl of compound solutions into 384-well polypropylen plates (daugther plates), using a Hummingwell nanoliter dispenser. Compounds were prediluted by the addition of 49.75 ul complete growth medium. 10 ul of prediluted compound solution were transferred to the cell plate using a 384-well pipettor, resulting in a final DMSO concentration of 0.11%. Cells were incubated for 1 h at […]/5% CO2/95% humidity. The supernatant was removed, the cells were lysed in 20 ul of lysis buffer for AlphaScreen® SureFire® detection.
For detection of p-AKT(Ser473), the SureFire® p-Akt 1/2 (Ser473) Assay Kit (PerkinElmer, U.S.A.) was used. 5 ul of cell lysate was transferred to 384-well low volume Proxiplates for detection using a 384-well pipettor. Addition of AlphaScreen® SureFire® reagents was done according to the manufacturer's protocol. First, 5 ul of reaction buffer plus activation buffer mix containing AlphaScreen® acceptor beads was added, the plate was sealed, and incubated on a plate shaker for 2 hours at room temperature. Second, 2 ul of dilution buffer containing AlphaScreen® donor beads was added, and the plate was incubated on plate shaker as above for a further 2 hours. The plate was read on an AlphaScreen® compatible plate reader, using standard AlphaScreen® settings. Alternatively, p-AKT(Ser473) was detected with the CisBio HTRF Assay Kit: As positive control, 0.9 mM of 1-(3-(trifluoromethyl)-4-(piperazin-1-yl)phenyl)-8-(6-methoxypyridin-3-yl)-3-methyl-1H-imidazo[4,5-c]quinolin-2(3H)-one maleic acid salt in 90% (v/v) DMSO was added to the compound master plate. For compound testing, the cells were seeded at a density of 4000 (Rat-1_PI3Kdelta), 8000 (Rat-1_PI3Kalpha), or 6500 (Rat-1_PI3Kbeta) cells in 30 ul complete growth medium into 384-well plates, with a plastic surface promoting the adhesion of cells and their growth (assay plates) and were grown at 37° C./5% CO2/90% humidity for 24 h. Some 10 ul of the compound predilutions from the daughter plate were then transferred to the cells. After treatment with compound for 1 h, medium was removed and cells were lysed by the addition of 20 ul lysis buffer supplemented with blocking buffer. Detection of p-AKT(Ser473) was performed with the HTRF pAKT (Ser473) assay kit according to the manufacturer's instructions using 16 ul of cell lysate in a total detection volume of 20 ul.

Sequence of PI3K alpha (P42336 21-1068): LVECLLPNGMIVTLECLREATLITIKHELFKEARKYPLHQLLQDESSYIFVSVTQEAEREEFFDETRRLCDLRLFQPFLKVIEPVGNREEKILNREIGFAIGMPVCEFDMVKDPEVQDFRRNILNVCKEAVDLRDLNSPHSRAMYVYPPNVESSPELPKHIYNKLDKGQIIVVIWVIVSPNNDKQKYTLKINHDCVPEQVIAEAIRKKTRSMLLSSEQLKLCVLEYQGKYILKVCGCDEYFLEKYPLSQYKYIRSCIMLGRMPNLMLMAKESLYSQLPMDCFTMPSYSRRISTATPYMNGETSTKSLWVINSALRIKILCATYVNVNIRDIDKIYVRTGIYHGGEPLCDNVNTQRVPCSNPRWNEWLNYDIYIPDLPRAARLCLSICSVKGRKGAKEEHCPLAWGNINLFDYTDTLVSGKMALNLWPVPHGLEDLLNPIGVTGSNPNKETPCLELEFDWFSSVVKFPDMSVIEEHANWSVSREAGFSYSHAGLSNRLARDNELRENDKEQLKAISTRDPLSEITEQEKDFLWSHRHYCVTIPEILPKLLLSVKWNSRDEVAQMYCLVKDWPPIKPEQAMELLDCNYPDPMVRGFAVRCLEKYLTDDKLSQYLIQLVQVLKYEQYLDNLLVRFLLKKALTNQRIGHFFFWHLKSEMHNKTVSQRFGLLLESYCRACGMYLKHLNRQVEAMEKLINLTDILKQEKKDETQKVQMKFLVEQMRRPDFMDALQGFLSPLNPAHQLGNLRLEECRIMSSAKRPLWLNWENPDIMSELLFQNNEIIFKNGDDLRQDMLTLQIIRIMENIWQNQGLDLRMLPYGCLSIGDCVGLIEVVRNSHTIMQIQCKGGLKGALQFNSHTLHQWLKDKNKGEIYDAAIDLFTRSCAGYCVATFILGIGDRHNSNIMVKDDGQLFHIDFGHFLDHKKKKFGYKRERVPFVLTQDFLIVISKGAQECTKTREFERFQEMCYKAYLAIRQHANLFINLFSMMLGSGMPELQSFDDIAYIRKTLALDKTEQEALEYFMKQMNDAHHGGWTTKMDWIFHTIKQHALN
Sequence of PI3K alpha (P27986 461-568 partner): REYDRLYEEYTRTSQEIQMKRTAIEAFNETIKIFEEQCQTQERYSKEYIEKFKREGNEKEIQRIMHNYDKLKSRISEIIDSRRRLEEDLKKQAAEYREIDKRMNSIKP
Sequence of human phosphoinositide-3 kinase (PI3K) alpha (P42336 whole entry): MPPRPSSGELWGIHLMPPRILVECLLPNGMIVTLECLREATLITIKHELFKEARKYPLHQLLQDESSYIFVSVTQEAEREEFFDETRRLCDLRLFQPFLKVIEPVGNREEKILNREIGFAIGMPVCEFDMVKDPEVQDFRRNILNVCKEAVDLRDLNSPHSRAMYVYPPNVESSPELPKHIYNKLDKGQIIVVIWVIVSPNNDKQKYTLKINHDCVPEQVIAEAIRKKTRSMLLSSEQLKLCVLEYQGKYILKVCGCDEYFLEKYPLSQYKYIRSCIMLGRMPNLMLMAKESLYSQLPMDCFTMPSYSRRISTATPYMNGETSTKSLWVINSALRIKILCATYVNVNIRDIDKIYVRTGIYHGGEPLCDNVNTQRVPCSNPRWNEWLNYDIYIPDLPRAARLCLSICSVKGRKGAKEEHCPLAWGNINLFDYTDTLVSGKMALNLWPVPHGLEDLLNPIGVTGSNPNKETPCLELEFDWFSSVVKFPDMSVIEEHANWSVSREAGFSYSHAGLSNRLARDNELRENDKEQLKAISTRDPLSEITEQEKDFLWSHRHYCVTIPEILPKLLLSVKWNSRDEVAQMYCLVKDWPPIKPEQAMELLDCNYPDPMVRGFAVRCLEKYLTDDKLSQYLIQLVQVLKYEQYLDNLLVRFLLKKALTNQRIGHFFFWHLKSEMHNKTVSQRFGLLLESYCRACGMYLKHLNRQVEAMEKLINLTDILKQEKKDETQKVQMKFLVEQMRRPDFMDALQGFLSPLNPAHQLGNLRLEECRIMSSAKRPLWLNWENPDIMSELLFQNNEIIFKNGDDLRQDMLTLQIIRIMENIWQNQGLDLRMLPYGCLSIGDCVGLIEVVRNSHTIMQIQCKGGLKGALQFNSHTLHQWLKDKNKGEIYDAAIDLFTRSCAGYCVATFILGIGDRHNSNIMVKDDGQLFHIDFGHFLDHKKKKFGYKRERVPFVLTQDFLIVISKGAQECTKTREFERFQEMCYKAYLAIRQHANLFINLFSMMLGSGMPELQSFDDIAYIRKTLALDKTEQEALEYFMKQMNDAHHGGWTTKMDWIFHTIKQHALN
Sequence of human phosphoinositide-3 kinase (PI3K) alpha (Q63787 whole entry partner): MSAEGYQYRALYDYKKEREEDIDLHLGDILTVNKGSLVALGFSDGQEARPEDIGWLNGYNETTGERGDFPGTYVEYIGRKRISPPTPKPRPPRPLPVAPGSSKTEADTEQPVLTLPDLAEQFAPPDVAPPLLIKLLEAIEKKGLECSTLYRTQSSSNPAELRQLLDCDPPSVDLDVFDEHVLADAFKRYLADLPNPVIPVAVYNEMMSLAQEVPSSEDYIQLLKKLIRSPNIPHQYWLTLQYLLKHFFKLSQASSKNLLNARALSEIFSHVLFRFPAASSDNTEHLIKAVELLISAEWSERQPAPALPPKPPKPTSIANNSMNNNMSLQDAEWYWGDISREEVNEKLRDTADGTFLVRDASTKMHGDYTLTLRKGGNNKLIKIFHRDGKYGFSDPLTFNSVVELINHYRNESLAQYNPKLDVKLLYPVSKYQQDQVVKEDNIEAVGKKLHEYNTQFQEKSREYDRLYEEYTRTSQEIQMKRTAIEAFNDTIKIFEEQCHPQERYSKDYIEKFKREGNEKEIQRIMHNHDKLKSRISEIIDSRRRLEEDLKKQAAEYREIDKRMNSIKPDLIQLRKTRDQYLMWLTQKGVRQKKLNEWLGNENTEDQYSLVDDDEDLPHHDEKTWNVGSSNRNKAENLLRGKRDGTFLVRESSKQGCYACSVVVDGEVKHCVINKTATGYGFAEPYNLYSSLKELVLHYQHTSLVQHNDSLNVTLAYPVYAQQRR

`Cc1nc(N)nc(N2C[C@@H](O)C[C@H]2c2nc3ccc(F)c(-c4cnn(C)c4)c3c(=O)n2-c2ccccc2)c1C#N` [Example 1, 2-Amino-4-((2S,4S)-2-(6-fluoro-5-(1-methyl-1H-pyrazol-4-yl)-4-oxo-3-phenyl-3,4-dihydroquinazolin-2-yl)-4-hydroxypyrrolidin-1-yl)-6-methylpyrimidine-5-carbonitrile]: the figures for the IC50 (against PI3K alpha; in assay [1]) were 0.074 µM and 2.2 µM, respectively.
Turning to `Cn1cc(-c2cccc3nc([C@@H]4CCCN4c4ncnc(N)c4C#N)n(-c4ccccc4)c(=O)c23)cn1` [Example 2, (S)-4-Amino-6-(2-(5-(1-methyl-1H-pyrazol-4-yl)-4-oxo-3-phenyl-3,4-dihydroquinazolin-2-yl)pyrrolidin-1-yl)pyrimidine-5-carbonitrile], the IC50 (against PI3K alpha; in assay [1]) was 1.3 µM each time.
As to `COc1ncc(-c2cccc3nc([C@@H]4CCCN4c4ncnc(N)c4C#N)n(-c4ccccc4)c(=O)c23)cn1` [Example 3, (S)-4-Amino-6-(2-(5-(2-methoxypyrimidin-5-yl)-4-oxo-3-phenyl-3,4-dihydroquinazolin-2-yl)pyrrolidin-1-yl)pyrimidine-5-carbonitrile], the IC50 – broadly, the midpoint of a concentration-inhibition curve – on PI3K alpha is 1.4 µM; in assay [1], 6.8 µM.
In the same order, the values of `COc1ncc(-c2cccc3nc([C@@H]4CCCN4c4nc(N)nc(C)c4C#N)n(-c4ccccc4)c(=O)c23)cn1` [Example 4, (S)-2-Amino-4-(2-(5-(2-methoxypyrimidin-5-yl)-4-oxo-3-phenyl-3,4-dihydroquinazolin-2-yl)pyrrolidin-1-yl)-6-methylpyrimidine-5-carbonitrile] are 0.32 µM and 2.8 µM.
On to `Cn1cc(-c2c(F)ccc3nc([C@@H]4CCCN4c4ncnc(N)c4C#N)n(-c4ccccc4)c(=O)c23)cn1` [Example 5, (S)-4-Amino-6-(2-(6-fluoro-5-(1-methyl-1H-pyrazol-4-yl)-4-oxo-3-phenyl-3,4-dihydroquinazolin-2-yl)pyrrolidin-1-yl)pyrimidine-5-carbonitrile], for which the figures for the IC50 (against PI3K alpha; in assay [1]) were 0.23 µM and 3 µM, respectively.
For the compound `Cc1nc(N)nc(N2CCC[C@H]2c2nc3ccc(F)c(-c4cnn(C)c4)c3c(=O)n2-c2ccccc2)c1C#N` [Example 6, (S)-2-Amino-4-(2-(6-fluoro-5-(1-methyl-1H-pyrazol-4-yl)-4-oxo-3-phenyl-3,4-dihydroquinazolin-2-yl)pyrrolidin-1-yl)-6-methylpyrimidine-5-carbonitrile], the IC50 at PI3K alpha was 0.13 µM; in assay [1] it was 1.4 µM.
As to `COc1ncc(-c2c(F)ccc3nc([C@@H]4C[C@H](O)CN4c4nc(N)nc(C)c4C#N)n(-c4ccccc4)c(=O)c23)cn1` [Example 7, 2-Amino-4-((2S,4S)-2-(6-fluoro-5-(2-methoxypyrimidin-5-yl)-4-oxo-3-phenyl-3,4-dihydroquinazolin-2-yl)-4-hydroxypyrrolidin-1-yl)-6-methylpyrimidine-5-carbonitrile], the IC50 against PI3K alpha is 0.21 µM; in assay [1], 4.7 µM.
On the same counts, the results for `Cn1cc(-c2c(F)ccc3nc([C@@H]4C[C@H](O)CN4c4ncnc(N)c4C#N)n(-c4ccccc4)c(=O)c23)cn1` [Example 8, 4-Amino-6-((2S,4S)-2-(6-fluoro-5-(1-methyl-1H-pyrazol-4-yl)-4-oxo-3-phenyl-3,4-dihydroquinazolin-2-yl)-4-hydroxypyrrolidin-1-yl) pyrimidine-5-carbonitrile] are 1.1 µM and 3.2 µM.
For the compound `COc1ncc(-c2c(F)ccc3nc([C@@H]4C[C@H](O)CN4c4nc(N)nc(C)c4C#N)n(-c4ccccc4)c(=O)c23)s1` [Example 9, 2-Amino-4-((2S,4S)-2-(6-fluoro-5-(2-methoxythiazol-5-yl)-4-oxo-3-phenyl-3,4-dihydroquinazolin-2-yl)-4-hydroxypyrrolidin-1-yl)-6-methylpyrimidine-5-carbonitrile], the IC50 against PI3K alpha was 0.053 µM; in assay [1], 0.67 µM.
For `CO[C@H]1C[C@@H](c2nc3cccc(-c4cnn(C)c4)c3c(=O)n2-c2ccccc2)N(c2nc(N)nc(C)c2C#N)C1` [Example 10, 2-Amino-4-((2S,4S)-4-methoxy-2-(5-(1-methyl-1H-pyrazol-4-yl)-4-oxo-3-phenyl-3,4-dihydroquinazolin-2-yl)pyrrolidin-1-yl)-6-methylpyrimidine-5-carbonitrile], the IC50 against PI3K alpha was 1.3 µM; in assay [1] it was 3.9 µM.
Turning to `CO[C@H]1C[C@@H](c2nc3cccc(-c4cnn(C)c4)c3c(=O)n2-c2ccccc2)N(c2nc(N)nc3[nH]cnc23)C1` [Example 11, 2-((2S,4S)-1-(2-Amino-9H-purin-6-yl)-4-methoxypyrrolidin-2-yl)-5-(1-methyl-1H-pyrazol-4-yl)-3-phenylquinazolin-4(3H)-one], the IC50 against PI3K alpha is 2.3 µM; in assay [1], above 10 µM.
Consider `COc1ncc(-c2cccc3nc([C@@H]4C[C@H](OC)CN4c4nc(N)nc(C)c4C#N)n(-c4ccccc4)c(=O)c23)cn1` [Example 12, 2-Amino-4-((2S,4S)-4-methoxy-2-(5-(2-methoxypyrimidin-5-yl)-4-oxo-3-phenyl-3,4-dihydroquinazolin-2-yl)pyrrolidin-1-yl)-6-methylpyrimidine-5-carbonitrile], for which the values for the IC50 (on PI3K alpha; in assay [1]) were 1.2 µM and 5.9 µM, respectively.
On the same counts, the results for `Cc1nc(N)nc(N2CCC[C@H]2c2nc3cccc(-c4cnn(C)c4)c3c(=O)n2-c2ccccc2)c1C#N` [Example 13, (S)-2-Amino-4-methyl-6-(2-(5-(1-methyl-1H-pyrazol-4-yl)-4-oxo-3-phenyl-3,4-dihydroquinazolin-2-yl)pyrrolidin-1-yl)pyrimidine-5-carbonitrile] are 0.26 µM and 1.1 µM.
